What all share (type): functional
Assay [1] has as its system Salmonella typhi. The experiment in a line: Antimicrobial activity against Salmonella enterica subsp. enterica serovar Typhi MTCC 98 assessed as growth inhibition after 24-48 hr by NCCLS broth microdilution method. (In general: Broth dilution looks for growth in wells or tubes with falling amounts of substance.)
Assay [2] relates to Streptococcus pneumoniae. Kind of assay: Antimicrobial activity against Streptococcus pneumoniae MTCC 1936 assessed as growth inhibition after 24-48 hr by NCCLS broth microdilution method.
The subject of assay [3] is Escherichia coli. Kind of assay: Antimicrobial activity against Escherichia coli MTCC 443 assessed as growth inhibition after 24-48 hr by NCCLS broth microdilution method.
For assay [4], the system named is Vibrio cholerae. The experiment in a line: Antimicrobial activity against Vibrio cholerae MTCC 3906 assessed as growth inhibition after 24-48 hr by NCCLS broth microdilution method.
For assay [5], the system named is Aspergillus fumigatus. Kind of assay: Antimicrobial activity against Aspergillus fumigatus MTCC 3008 assessed as growth inhibition after 24-48 hr by NCCLS broth microdilution method.
In assay [6] the test system is Clostridium tetani. The experiment in a line: Antimicrobial activity against Clostridium tetani MTCC 449 assessed as growth inhibition after 24-48 hr by NCCLS broth microdilution method.
Assay [7] relates to Bacillus subtilis. The experiment in a line: Antimicrobial activity against Bacillus subtilis MTCC 441 assessed as growth inhibition after 24-48 hr by NCCLS broth microdilution method.
The subject of assay [8] is Candida albicans. Kind of assay: Antimicrobial activity against Candida albicans MTCC 227 assessed as growth inhibition after 24-48 hr by NCCLS broth microdilution method.

Our source for the MIC values is ChEMBL document CHEMBL3046940, “Microwave-assisted synthesis of novel 4H-chromene derivatives bearing 2-aryloxyquinoline and their antimicrobial activity assessment” (2013).

Values after ≈ are worked out from the molar mass of the structure shown.

For orientation: MIC means the least concentration at which growth counts as inhibited. Regarding `COc1ccc2nc(Oc3ccc(C)cc3)c(C3C(C#N)=C(N)OC4=C3C(=O)CC(C)(C)C4)cc2c1` (stereo not given), the MIC in assay [1] was determined as 100 µg/mL (≈ 208 µM); in assay [2], 500 µg/mL (≈ 1040 µM); in assay [3], 100 µg/mL (≈ 208 µM); in assay [4], 200 µg/mL (≈ 415 µM); in assay [5], 500 µg/mL (≈ 1040 µM); in assay [6] it was 100 µg/mL (≈ 208 µM). Further, the MIC in assay [7] came out at 500 µg/mL (≈ 1040 µM); in assay [8] it was 1000 µg/mL (≈ 2080 µM).

Take `COc1ccc2nc(Oc3ccccc3)c(C3C(C#N)=C(N)OC4=C3C(=O)CC(C)(C)C4)cc2c1` (stereo not given): the MIC stood at 500 µg/mL (≈ 1070 µM) in assay [1]; 500 µg/mL (≈ 1070 µM) in assay [2]; 200 µg/mL (≈ 428 µM) in assay [3]; 200 µg/mL (≈ 428 µM) in assay [4]; 1000 µg/mL (≈ 2140 µM) in assay [5]; 100 µg/mL (≈ 214 µM) in assay [6]. In addition, the MIC in assay [7] and in assay [8] was 500 µg/mL (≈ 1070 µM) in each case.

`O=C(O)c1cn(C2CC2)c2cc(N3CCNCC3)c(F)cc2c1=O` [CIPROFLOXACIN]: the MIC in assay [1] was 25 µg/mL (≈ 75.4 µM); in assay [2] it was 50 µg/mL (≈ 151 µM); in assay [3], 25 µg/mL (≈ 75.4 µM); in assay [4], 25 µg/mL (≈ 75.4 µM).

As to `COc1ccc(Oc2nc3ccc(OC)cc3cc2C2C(C#N)=C(N)OC3=C2C(=O)CC(C)(C)C3)cc1` (stereo not given), the MIC in assay [1] is 250 µg/mL (≈ 502 µM); in assay [2], 1000 µg/mL (≈ 2010 µM); in assay [3] it was 250 µg/mL (≈ 502 µM); in assay [4] it was 250 µg/mL (≈ 502 µM); in assay [5], 500 µg/mL (≈ 1000 µM); in assay [6], 250 µg/mL (≈ 502 µM). The MIC is 1000 µg/mL (≈ 2010 µM) in assay [7] and 250 µg/mL (≈ 502 µM) in assay [8].

As to `CCn1cc(C(=O)O)c(=O)c2cc(F)c(N3CCNCC3)cc21` [NORFLOXACIN], the MIC worked out at 10 µg/mL (≈ 31.3 µM) in assay [1]; 10 µg/mL (≈ 31.3 µM) in assay [2]; 10 µg/mL (≈ 31.3 µM) in assay [3]; 10 µg/mL (≈ 31.3 µM) in assay [4]; 50 µg/mL (≈ 157 µM) in assay [6]; 100 µg/mL (≈ 313 µM) in assay [7].

As to `Cc1ccc(Oc2nc3ccccc3cc2C2C(C#N)=C(N)OC3=C2C(=O)CCC3)cc1` (stereo not given), the MIC is 500 µg/mL (≈ 1180 µM) in assay [1]; 500 µg/mL (≈ 1180 µM) in assay [2]; 250 µg/mL (≈ 590 µM) in assay [3]; 200 µg/mL (≈ 472 µM) in assay [4]; 500 µg/mL (≈ 1180 µM) in assay [5]; 500 µg/mL (≈ 1180 µM) in assay [6]. Further, the MIC in assay [7] was 1000 µg/mL (≈ 2360 µM); in assay [8], 500 µg/mL (≈ 1180 µM).

On to `COc1ccc(Oc2nc3ccccc3cc2C2C(C#N)=C(N)OC3=C2C(=O)CCC3)cc1` (stereo not given), for which the MIC is 250 µg/mL (≈ 569 µM) in assay [1]; 100 µg/mL (≈ 228 µM) in assay [2]; 150 µg/mL (≈ 341 µM) in assay [3]; 100 µg/mL (≈ 228 µM) in assay [4]; more than 1000 µg/mL in assay [5]; 1000 µg/mL (≈ 2280 µM) in assay [6]. Further, the results for the MIC in assay [7] and in assay [8] were 200 µg/mL (≈ 455 µM) and 1000 µg/mL (≈ 2280 µM), respectively.

Take `N#CC1=C(N)OC2=C(C(=O)CCC2)C1c1cc2ccccc2nc1Oc1ccc(F)cc1` (stereo not given): the MIC was 200 µg/mL (≈ 468 µM) in assay [1]; 250 µg/mL (≈ 585 µM) in assay [2]; 100 µg/mL (≈ 234 µM) in assay [3]; 500 µg/mL (≈ 1170 µM) in assay [4]; more than 1000 µg/mL in assay [5]; 500 µg/mL (≈ 1170 µM) in assay [6]. The MIC in assay [7] and in assay [8] was 250 µg/mL (≈ 585 µM) in each case.

Take `O=C(N[C@H](CO)[C@H](O)c1ccc([N+](=O)[O-])cc1)C(Cl)Cl` [CHLORAMPHENICOL]: the MIC in assay [1], in assay [2], in assay [3], in assay [4], in assay [6] and in assay [7] was 50 µg/mL (≈ 155 µM) each time.

As to `COC1=CC(=O)C[C@@H](C)[C@]12Oc1c(Cl)c(OC)cc(OC)c1C2=O` [GRISEOFULVIN], the MIC in assay [5] was determined as 100 µg/mL (≈ 283 µM); in assay [8], 500 µg/mL (≈ 1420 µM).

`COc1ccc2nc(Oc3ccc(F)cc3)c(C3C(C#N)=C(N)OC4=C3C(=O)CC(C)(C)C4)cc2c1` (stereo not given): the MIC in assay [1] came out at 100 µg/mL (≈ 206 µM); in assay [2], 150 µg/mL (≈ 309 µM); in assay [3], 62.5 µg/mL (≈ 129 µM); in assay [4] it was 250 µg/mL (≈ 515 µM); in assay [5], 500 µg/mL (≈ 1030 µM); in assay [6] it was 200 µg/mL (≈ 412 µM). In addition, the MIC in assay [7] worked out at 200 µg/mL (≈ 412 µM); in assay [8], 500 µg/mL (≈ 1030 µM).

NYSTATIN: the MIC in assay [5] and in assay [8] was 100 µg/mL each time.

On to `N#CC1=C(N)OC2=C(C(=O)CCC2)C1c1cc2ccccc2nc1Oc1ccccc1` (stereo not given), for which the minimal inhibitory concentration (MIC) is 250 µg/mL (≈ 611 µM) in assay [1]; 250 µg/mL (≈ 611 µM) in assay [2]; 100 µg/mL (≈ 244 µM) in assay [3]; 250 µg/mL (≈ 611 µM) in assay [4]; 1000 µg/mL (≈ 2440 µM) in assay [5]; 250 µg/mL (≈ 611 µM) in assay [6]. Further, the MIC in assay [7] was determined as 250 µg/mL (≈ 611 µM); in assay [8], 500 µg/mL (≈ 1220 µM).

Regarding `CC1(C)S[C@@H]2[C@H](NC(=O)[C@H](N)c3ccccc3)C(=O)N2[C@H]1C(=O)O` [AMPICILLIN], the MIC in assay [1] stood at 100 µg/mL (≈ 286 µM); in assay [2] it was 100 µg/mL (≈ 286 µM); in assay [3], 100 µg/mL (≈ 286 µM); in assay [4], 100 µg/mL (≈ 286 µM); in assay [6] it was 250 µg/mL (≈ 715 µM); in assay [7] it was 250 µg/mL (≈ 715 µM).
